The values below are quoted from earlier work in patent US7378114B2, “Method for producing soluble composition containing isoflavones” (Fuji Oil Company, Limited, priority 2001, dated 2008).

For the data set the following is noted: under 25° C.; according to the literature; per 100 g solvent.

As for `O=c1c(-c2ccccc2)coc2ccccc12` [isoflavone], the solubility in water is 0.002 to 0.003 g.
